# Data taken from patent publication US20250346602A1, “LACTAM SUBSTITUTED IMIDAZOPYRIDAZINE IL-17A MODULATORS AND USES THEREOF” (DICE ALPHA, INC., priority 2022, published 2025).
# Molecular target: T1, IL-17A/A (Homo sapiens, UniProt Q16552)
# T1 construct: purchased Genscript Z03228
# T1 sequence (Q16552 24-155): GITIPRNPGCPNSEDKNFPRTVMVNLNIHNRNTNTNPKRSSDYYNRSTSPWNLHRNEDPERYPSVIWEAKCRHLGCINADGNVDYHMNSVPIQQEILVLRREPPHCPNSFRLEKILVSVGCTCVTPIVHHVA
# Test: IL-17A/A HEK-Blue cell assay
# Format: cell-based
# Conditions: HEK-Blue IL-17A reporter cell line (HEK 293), IL-17A/A stimulation, 20 hours incubation, SEAP read at A630
# Procedure, shortened: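 HEK293 reporter cells expressing IL-17RA, IL-17RC and Act1 were given titrated compound (top final 10, 1 or 0.3 uM; 0.1% DMSO) right before IL-17A/A and incubated 20 hours. NFκB-driven SEAP in the media was read at A630 with Quanti-Blue, and IC50 came from a 4-parameter nonlinear fit.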
row,IC50 [nM],SMILES
1,< 100,"O=C(N[C@H](c1cn2nc(CC3C[C@@H](C(F)(F)F)CNC3=O)ccc2n1)[C@H]1CCCC(F)(F)C1)c1nonc1C1CC1 (stereo partly drawn) [Compound 144, 4-cyclopropyl-N—((S)-((S)-3,3-difluorocyclohexyl)(6-(((5R)-2-oxo-5-(trifluoromethyl)piperidin-3-yl)methyl)imidazo[1,2-b]pyridazin-2-yl)methyl)-1,2,5-oxadiazole-3-carboxamide]"
2,< 100,"O=C(N[C@H](c1cn2nc(CC3C[C@@H](C(F)(F)F)CNC3=O)ccc2n1)[C@@H]1CCCC(F)(F)C1)c1nonc1C1CC1 (stereo partly drawn) [Compound 145, 4-cyclopropyl-N—((S)-((R)-3,3-difluorocyclohexyl)(6-(((5R)-2-oxo-5-(trifluoromethyl)piperidin-3-yl)methyl)imidazo[1,2-b]pyridazin-2-yl)methyl)-1,2,5-oxadiazole-3-carboxamide]"
3,< 100,"O=C(N[C@H](c1cn2nc(CC3C[C@@H](C(F)(F)F)CNC3=O)ccc2n1)[C@H]1CCCC(F)(F)C1)c1conc1C1CC1 (stereo partly drawn) [Compound 146, 3-cyclopropyl-N-((1S)—((S)-3,3-difluorocyclohexyl)(6-(((5R)-2-oxo-5-(trifluoromethyl)piperidin-3-yl)methyl)imidazo[1,2-b]pyridazin-2-yl)methyl)isoxazole-4-carboxamide]"
4,100 to 1000,"O=C(N[C@H](c1cn2nc(CC3C[C@@H](C(F)(F)F)CNC3=O)ccc2n1)[C@@H]1CCCC(F)(F)C1)c1conc1C1CC1 (stereo partly drawn) [Compound 147, 3-cyclopropyl-N-((1S)—((R)-3,3-difluorocyclohexyl)(6-(((5R)-2-oxo-5-(trifluoromethyl)piperidin-3-yl)methyl)imidazo[1,2-b]pyridazin-2-yl)methyl)isoxazole-4-carboxamide]"
5,< 100,"CC(C)n1nccc1C(=O)N[C@H](c1cn2nc(CC3C[C@@H](C(F)(F)F)CNC3=O)ccc2n1)[C@H]1CCCC(F)(F)C1 (stereo partly drawn) [Compound 148, N-((1S)—((S)-3,3-difluorocyclohexyl)(6-(((5R)-2-oxo-5-(trifluoromethyl)piperidin-3-yl)methyl)imidazo[1,2-b]pyridazin-2-yl)methyl)-1-isopropyl-1H-pyrazole-5-carboxamide]"
6,< 100,"CC(C)n1nccc1C(=O)N[C@H](c1cn2nc(CC3C[C@@H](C(F)(F)F)CNC3=O)ccc2n1)[C@@H]1CCCC(F)(F)C1 (stereo partly drawn) [Compound 149, N-((1S)—((R)-3,3-difluorocyclohexyl)(6-(((5R)-2-oxo-5-(trifluoromethyl)piperidin-3-yl)methyl)imidazo[1,2-b]pyridazin-2-yl)methyl)-1-isopropyl-1H-pyrazole-5-carboxamide]"
7,< 100,"CC(C)c1nonc1C(=O)N[C@H](c1cn2nc(CC3C[C@@H](C(F)(F)F)CNC3=O)ccc2n1)[C@H]1CCCC(F)(F)C1 (stereo partly drawn) [Compound 150, N-((1S)—((S)-3,3-difluorocyclohexyl)(6-(((5R)-2-oxo-5-(trifluoromethyl)piperidin-3-yl)methyl)imidazo[1,2-b]pyridazin-2-yl)methyl)-4-isopropyl-1,2,5-oxadiazole-3-carboxamide]"
8,< 100,"CC(C)c1nonc1C(=O)N[C@H](c1cn2nc(CC3C[C@@H](C(F)(F)F)CNC3=O)ccc2n1)[C@@H]1CCCC(F)(F)C1 (stereo partly drawn) [Compound 151, N-((1S)—((R)-3,3-difluorocyclohexyl)(6-(((5R)-2-oxo-5-(trifluoromethyl)piperidin-3-yl)methyl)imidazo[1,2-b]pyridazin-2-yl)methyl)-4-isopropyl-1,2,5-oxadiazole-3-carboxamide]"
9,100 to 1000,"CCn1nccc1C(=O)N[C@H](c1cn2nc(CC3C[C@H](C(F)(F)F)CNC3=O)ccc2n1)C1CCC(F)(F)CC1 (stereo partly drawn) [Compound 152, N-((1S)-(4,4-difluorocyclohexyl)(6-(((5S)-2-oxo-5-(trifluoromethyl)piperidin-3-yl)methyl)imidazo[1,2-b]pyridazin-2-yl)methyl)-1-ethyl-1H-pyrazole-5-carboxamide]"
10,100 to 1000,"CCn1nccc1C(=O)N[C@H](c1cn2nc(CC3C[C@H](C(F)(F)F)CNC3=O)ccc2n1)C(C1CC1)C1CC1 (stereo partly drawn) [Compound 153, N-((1S)-2,2-dicyclopropyl-1-(6-(((5S)-2-oxo-5-(trifluoromethyl)piperidin-3-yl)methyl)imidazo[1,2-b]pyridazin-2-yl)ethyl)-1-ethyl-1H-pyrazole-5-carboxamide]"
11,< 100,"CCn1nccc1C(=O)N[C@H](c1cn2nc(CC3C[C@H](C(F)(F)F)CNC3=O)ccc2n1)[C@H]1CC[C@H](C)CC1 (stereo partly drawn) [Compound 154, 1-Ethyl-N-((1S)-((1R.4S)-4-methylcyclohexyl)(6-(((5S)-2-oxo-5-(trifluoromethyl)piperidin-3-yl)methyl)imidazo[1,2-b]pyridazin-2-yl)methyl)-1H-pyrazole-5-carboxamide]"
12,< 100,"O=C(N[C@H](c1cn2nc(CC3C[C@H](C(F)(F)F)CNC3=O)ccc2n1)[C@H]1CCCC(F)(F)C1)c1nonc1C1CC1 (stereo partly drawn) [Compound 155, 4-cyclopropyl-N—((S)-((S)-3,3-difluorocyclohexyl)(6-(((5S)-2-oxo-5-(trifluoromethyl)piperidin-3-yl)methyl)imidazo[1,2-b]pyridazin-2-yl)methyl)-1,2,5-oxadiazole-3-carboxamide]"
13,100 to 1000,"O=C(N[C@H](c1cn2nc(CC3C[C@H](C(F)(F)F)CNC3=O)ccc2n1)[C@@H]1CCCC(F)(F)C1)c1nonc1C1CC1 (stereo partly drawn) [Compound 156, 4-cyclopropyl-N—((S)-((R)-3,3-difluorocyclohexyl)(6-(((5S)-2-oxo-5-(trifluoromethyl)piperidin-3-yl)methyl)imidazo[1,2-b]pyridazin-2-yl)methyl)-1,2,5-oxadiazole-3-carboxamide]"
14,< 100,"O=C(N[C@H](c1cn2nc(CC3C[C@H](C(F)(F)F)CNC3=O)ccc2n1)[C@H]1CCCC(F)(F)C1)c1conc1C1CC1 (stereo partly drawn) [Compound 157, 3-cyclopropyl-N-((1S)—((S)-3,3-difluorocyclohexyl)(6-(((5S)-2-oxo-5-(trifluoromethyl)piperidin-3-yl)methyl)imidazo[1,2-b]pyridazin-2-yl)methyl)isoxazole-4-carboxamide]"
15,100 to 1000,"O=C(N[C@H](c1cn2nc(CC3C[C@H](C(F)(F)F)CNC3=O)ccc2n1)[C@@H]1CCCC(F)(F)C1)c1conc1C1CC1 (stereo partly drawn) [Compound 158, 3-cyclopropyl-N-((1S)—((R)-3,3-difluorocyclohexyl)(6-(((5S)-2-oxo-5-(trifluoromethyl)piperidin-3-yl)methyl)imidazo[1,2-b]pyridazin-2-yl)methyl)isoxazole-4-carboxamide]"
16,< 100,"CC(C)n1nccc1C(=O)N[C@H](c1cn2nc(CC3C[C@H](C(F)(F)F)CNC3=O)ccc2n1)[C@H]1CCCC(F)(F)C1 (stereo partly drawn) [Compound 159, N-((1S)—((S)-3,3-difluorocyclohexyl)(6-(((5S)-2-oxo-5-(trifluoromethyl)piperidin-3-yl)methyl)imidazo[1,2-b]pyridazin-2-yl)methyl)-1-isopropyl-1H-pyrazole-5-carboxamide]"
17,< 100,"CC(C)n1nccc1C(=O)N[C@H](c1cn2nc(CC3C[C@H](C(F)(F)F)CNC3=O)ccc2n1)[C@@H]1CCCC(F)(F)C1 (stereo partly drawn) [Compound 160, N-((1S)—((R)-3,3-difluorocyclohexyl)(6-(((5S)-2-oxo-5-(trifluoromethyl)piperidin-3-yl)methyl)imidazo[1,2-b]pyridazin-2-yl)methyl)-1-isopropyl-1H-pyrazole-5-carboxamide]"
18,< 100,"C[C@H]1CC[C@H]([C@H](NC(=O)c2conc2C2CC2)c2cn3nc(CC4C[C@@H](C(F)(F)F)CNC4=O)ccc3n2)CC1 (stereo partly drawn) [Compound 161, 3-cyclopropyl-N-((1S)-((1R.4S)-4-methylcyclohexyl)(6-(((5R)-2-oxo-5-(trifluoromethyl)piperidin-3-yl)methyl)imidazo[1,2-b]pyridazin-2-yl)methyl)isoxazole-4-carboxamide]"
19,100 to 1000,"Cn1nccc1C(=O)N[C@H](c1cn2nc(CC3C[C@@H](C(F)(F)F)CNC3=O)ccc2n1)[C@H]1CC[C@H](C)CC1 (stereo partly drawn) [Compound 162, 1-methyl-N-((1S)-((1R.4S)-4-methylcyclohexyl)(6-(((5R)-2-oxo-5-(trifluoromethyl)piperidin-3-yl)methyl)imidazo[1,2-b]pyridazin-2-yl)methyl)-1H-pyrazole-5-carboxamide]"
20,100 to 1000,"CC(C)n1nncc1C(=O)N[C@H](c1cn2nc(CC3C[C@@H](C(F)(F)F)CNC3=O)ccc2n1)[C@H]1CC[C@H](C)CC1 (stereo partly drawn) [Compound 163, N-((1S)-((1R.4S)-4-methylcyclohexyl)(6-(((5R)-2-oxo-5-(trifluoromethyl)piperidin-3-yl)methyl)imidazo[1,2-b]pyridazin-2-yl)methyl)-1-isopropyl-1H-1,2,3-triazole-5-carboxamide]"
21,> 1000,"C[C@H]1CC[C@H]([C@H](NC(=O)c2nonc2N)c2cn3nc(CC4C[C@@H](C(F)(F)F)CNC4=O)ccc3n2)CC1 (stereo partly drawn) [Compound 164, 4-amino-N-((1S)—((1R.4S)-4-methylcyclohexyl)(6-(((5R)-2-oxo-5-(trifluoromethyl)piperidin-3-yl)methyl)imidazo[1,2-b]pyridazin-2-yl)methyl)-1,2,5-oxadiazole-3-carboxamide]"
22,100 to 1000,"Cc1nonc1C(=O)N[C@H](c1cn2nc(CC3C[C@@H](C(F)(F)F)CNC3=O)ccc2n1)[C@H]1CC[C@H](C)CC1 (stereo partly drawn) [Compound 165, 4-Methyl-N-((1S)-((1R.4S)-4-methylcyclohexyl)(6-(((5R)-2-oxo-5-(trifluoromethyl)piperidin-3-yl)methyl)imidazo[1,2-b]pyridazin-2-yl)methyl)-1,2,5-oxadiazole-3-carboxamide]"
